Legend:
[1] = test system: effect of estradiol on the prostate (FRA2 or PR expression); test: Estrogen antagonist effect in the prostate of castrated Noble rats, with and without estradiol, measured by FRA2 or PR expression; assay type: in vivo; conditions: three weeks, 3, 10 and 30 mg/kg, with and without estradiol 70 ug/day
[2] = Estrogen antagonist treatment of prostatitis in rats treated with T and E2; assay type: in vivo; conditions: 3 weeks T 240 ug/day and E2 70 ug/day, 2 doses of 5 mg/kg on the third week
From the text: As prostatitis can be reversed by administering an antiestrogen, the condition is seen to be estrogen dependent.

OCCOCCOc1ccc(/C(=C(/CCCl)c2ccccc2)c2ccccc2)cc1 [fispemifene]
effect of estradiol on the prostate, measured by FRA2 or PR expression [1]: dose dependently inhibited the effect of estradiol on the prostate

C[C@]12CC[C@@H]3c4ccc(O)cc4C[C@@H](CCCCCCCCC[S+]([O-])CCCC(F)(F)C(F)(F)F)[C@H]3[C@@H]1CC[C@@H]2O (some centres unmarked) [fulvestrant]
effect on prostatitis compared to the control group treated with T and E2 only [2]: significantly reduced the prostatitis
